“And” between values parts separate entries of the source, which are not always exact repeats. Equal values may be shown once. Non-standard residues stand in square brackets, D forms with d. Residues, ends and D or L forms follow the SMILES beside them. No end group written: not given here. Cit = NC(=O)NCCC[C@H](N)C(=O)O

The EC50 is the concentration needed to bring the measured effect to its halfway point. Higher therefore signals weaker potency.

One experiment addresses DR0401 (HLA-DRB1*04:01) (Homo sapiens, UniProt P01903+P01911, A100K/A169T/F76Y/I96L/K127E/L162R/M171V/N62H/P40V/Q125Y/R42H/S133A/S149N/S66Y/V115G/V209L/W38E). The experiment can be described thus: Peptide binding to DR0401.
Settings: not given
On to `CC[C@H](C)[C@H](NC(=O)[C@@H](NC(=O)[C@H](CCCNC(N)=O)NC(=O)[C@H](CC(C)C)NC(=O)[C@@H](NC(=O)[C@@H](NC(=O)[C@H](Cc1ccccc1)NC(=O)[C@@H](NC(=O)[C@H](Cc1c[nH]c2ccccc12)NC(=O)[C@H](CC(C)C)NC(=O)[C@H](CC(C)C)NC(=O)[C@@H](N)[C@@H](C)O)C(C)C)C(C)C)[C@@H](C)O)C(C)C)C(=O)N[C@H](C(=O)N[C@@H](C)C(=O)N[C@@H](C)C(=O)N[C@H](C(=O)N[C@H](C(=O)N[C@H](C(=O)O)C(C)C)[C@@H](C)O)C(C)C)[C@@H](C)O` [agg 3-20] (H-TLLWVFVTL[Cit]VITAAVTV-OH), for which the concentration giving a half-maximal response (EC50) is 35.3 µM and 36.1 µM.

In the case of `CC[C@H](C)[C@H](NC(=O)[C@@H]1CCCN1C(=O)[C@H](Cc1ccc(O)cc1)NC(=O)[C@H](CCCNC(N)=O)NC(=O)[C@@H](NC(=O)[C@H](CO)NC(=O)[C@H](CCCNC(N)=O)NC(=O)[C@H](CC(=O)O)NC(=O)[C@H](C)NC(=O)[C@H](CC(C)C)NC(=O)[C@H](Cc1c[nH]c2ccccc12)NC(=O)CNC(=O)[C@H](C)NC(=O)[C@@H](N)CO)C(C)C)C(=O)N[C@@H](CO)C(=O)N[C@@H](CCCCN)C(=O)O` [agg 298-313] (H-SAGWLAD[Cit]SV[Cit]YPISK-OH), the EC50 is 1.9 µM and 2.94 µM.

Take `CC(C)C[C@H](NC(=O)[C@H](CO)NC(=O)[C@H](Cc1ccc(O)cc1)NC(=O)[C@H](CCCNC(N)=O)NC(=O)[C@@H](NC(=O)[C@@H]1CCCN1C(=O)CNC(=O)[C@@H]1CCCN1C(=O)[C@H](CCCNC(N)=O)NC(=O)[C@H](Cc1ccc(O)cc1)NC(=O)[C@H](Cc1c[nH]cn1)NC(=O)[C@H](Cc1ccccc1)NC(=O)[C@@H](NC(=O)[C@@H](NC(=O)CN)C(C)C)C(C)C)[C@@H](C)O)C(=O)N[C@H](C(=O)N[C@@H](Cc1ccccc1)C(=O)O)[C@@H](C)O` [agg 477] (H-GVVFHY[Cit]PGPT[Cit]YSLTF-OH): the EC50 was 14.7 µM and > 100 µM.

Take `CC(C)C[C@H](NC(=O)[C@H](CCCNC(N)=O)NC(=O)[C@H](CC(=O)O)NC(=O)[C@@H](NC(=O)[C@H](Cc1ccccc1)NC(=O)[C@H](CS)NC(=O)[C@H](Cc1ccc(O)cc1)NC(=O)[C@@H](NC(=O)[C@@H](N)CC(=O)O)C(C)C)C(C)C)C(=O)N[C@@H](CCC(=O)O)C(=O)NCC(=O)N[C@@H](CCC(=O)O)C(=O)N[C@H](C(=O)N[C@@H](Cc1ccccc1)C(=O)N[C@@H](Cc1ccccc1)C(=O)N[C@@H](C)C(=O)O)C(C)C` [agg 568] (H-DVYCFVD[Cit]LEGEVFFA-OH): the EC50 was 23.4 µM and 3.06 µM.

As for `CC(C)C[C@H](NC(=O)[C@H](CCCNC(N)=O)NC(=O)[C@@H](NC(=O)[C@H](C)NC(=O)[C@H](Cc1ccccc1)NC(=O)[C@H](Cc1ccccc1)NC(=O)[C@@H](NC(=O)[C@@H](N)CCC(=O)O)C(C)C)[C@@H](C)O)C(=O)N[C@@H](CCC(=O)O)C(=O)N[C@@H](CCC(N)=O)C(=O)N[C@@H](Cc1ccccc1)C(=O)N[C@H](C(=O)N[C@@H](Cc1ccccc1)C(=O)N[C@@H](CCC(N)=O)C(=O)N[C@@H](CCC(=O)O)C(=O)O)[C@@H](C)O` [agg 579] (H-EVFFAT[Cit]LEQFTFQE-OH), the EC50 was 78.4 µM and 15.3 µM.

In the case of `CC[C@H](C)[C@H](NC(=O)[C@@H]1CCCN1C(=O)[C@H](Cc1ccc(O)cc1)NC(=O)[C@H](CCCNC(N)=O)NC(=O)[C@H](CC(C)C)NC(=O)[C@H](CO)NC(=O)CNC(=O)[C@H](CC(=O)O)NC(=O)[C@H](C)NC(=O)[C@H](CC(C)C)NC(=O)[C@H](Cc1c[nH]c2ccccc12)NC(=O)CNC(=O)[C@H](C)NC(=O)[C@H](Cc1ccc(O)cc1)NC(=O)[C@H](CS)NC(=O)[C@@H](N)CCCCN)C(=O)N[C@H](C(=O)O)C(C)C` [agg 621] (H-KCYAGWLADGSL[Cit]YPIV-OH), the EC50 is 6.9 µM and 4.66 µM.

Consider `CC(C)C[C@H](NC(=O)[C@H](CS)NC(=O)[C@H](Cc1ccccc1)NC(=O)[C@@H]1CCCN1C(=O)[C@H](CO)NC(=O)[C@@H](N)CC(N)=O)C(=O)N[C@@H](CCC(=O)O)C(=O)N[C@@H](CCCNC(N)=O)C(=O)N[C@H](C(=O)N1CCC[C@H]1C(=O)N[C@@H](CC(C)C)C(=O)NCC(=O)N[C@@H](CO)C(=O)N1CCC[C@H]1C(=O)N[C@@H](CC(=O)O)C(=O)N1CCC[C@H]1C(=O)N[C@@H](C)C(=O)O)[C@@H](C)O` [agg 684] (H-NSPFCLE[Cit]TPLGSPDPA-OH), for which the EC50 was 0.12 µM and 0.13 µM.

The experiment is the same for the next values; noted with them: data not shown.
Consider “VVLLVATEG[Cit]VRVNSAYQDK [cit-Agg84, reference compound]”, for which the “Binding to DR0401 (in words)” value is “very low affinity”.

For the origin of these results see article PMC6438725 (Arthritis & rheumatology (Hoboken, N.J.), 2019).
